According to ChEMBL document CHEMBL5528040, “Design and Synthesis of Novel 3-Nitro-1H-1,2,4-triazole-1,2,3-triazole-1,4-disubstituted Analogs as Promising Antitrypanosomatid Agents: Evaluation of In Vitro Activity against Chagas Disease and Leishmaniasis” (J Med Chem, 2024):

Columns and labels:
[1] = Mutagenicity in Salmonella typhimurium TA98 assessed as mutagenic index ratio at 50 ug per plate incubated for 90 mins by AMES test; format: toxicity, Salmonella enterica subsp. enterica serovar Typhimurium; settings: in vivo, 1.5 h, dose 50 µg
[2] = Mutagenicity in Salmonella typhimurium TA102 assessed as number of revertant colonies at 1500 ug per plate incubated for 90 mins by AMES test (reference value: 110.67 +/- 20.15); format: toxicity, Salmonella enterica subsp. enterica serovar Typhimurium; settings: in vivo, 1.5 h, dose 1500 µg
[3] = Mutagenicity in Salmonella typhimurium TA100 assessed as number of revertant colonies at 500 ug per plate incubated for 90 mins in presence of S9 fraction by AMES test (reference value: 122.67 +/- 5.03); format: toxicity, subcellular, Salmonella enterica subsp. enterica serovar Typhimurium; settings: s9, 1.5 h, dose 500 µg
[4] = Mutagenicity in Salmonella typhimurium TA102 assessed as mutagenic index ratio at 150 ug per plate incubated for 90 mins in presence of S9 fraction by AMES test; format: toxicity, subcellular, Salmonella enterica subsp. enterica serovar Typhimurium; settings: s9, 1.5 h, dose 150 µg
[5] = Mutagenicity in Salmonella typhimurium TA102 assessed as mutagenic index ratio at 5000 ug per plate incubated for 90 mins in presence of S9 fraction by AMES test; format: toxicity, subcellular, Salmonella enterica subsp. enterica serovar Typhimurium; settings: s9, 1.5 h, dose 5000 µg
[6] = Mutagenicity in Salmonella typhimurium TA102 assessed as number of revertant colonies at 5000 ug per plate incubated for 90 mins in presence of S9 fraction by AMES test (reference value: 130.00 +/- 6.93); format: toxicity, subcellular, Salmonella enterica subsp. enterica serovar Typhimurium; settings: s9, 1.5 h, dose 5000 µg
[7] = Mutagenicity in Salmonella typhimurium TA98 assessed as number of revertant colonies at 5000 ug per plate incubated for 90 mins by AMES test (reference value: 22.67 +/- 0.58); format: toxicity, Salmonella enterica subsp. enterica serovar Typhimurium; settings: in vivo, 1.5 h, dose 5000 µg
[8] = Mutagenicity in Salmonella typhimurium TA100 assessed as mutagenic index ratio at 50 ug per plate incubated for 90 mins in presence of S9 fraction by AMES test; format: toxicity, subcellular, Salmonella enterica subsp. enterica serovar Typhimurium; settings: s9, 1.5 h, dose 50 µg
[9] = Mutagenicity in Salmonella typhimurium TA100 assessed as number of revertant colonies at 500 ug per plate incubated for 90 mins by AMES test (reference value: 88.00 +/- 2.65); format: toxicity, Salmonella enterica subsp. enterica serovar Typhimurium; settings: in vivo, 1.5 h, dose 500 µg
[10] = Mutagenicity in Salmonella typhimurium TA98 assessed as number of revertant colonies at 500 ug per plate incubated for 90 mins by AMES test (reference value: 22.67 +/- 0.58); format: toxicity, Salmonella enterica subsp. enterica serovar Typhimurium; settings: in vivo, 1.5 h, dose 500 µg
[11] = Mutagenicity in Salmonella typhimurium TA102 assessed as mutagenic index ratio at 500 ug per plate incubated for 90 mins by AMES test; format: toxicity, Salmonella enterica subsp. enterica serovar Typhimurium; settings: in vivo, 1.5 h, dose 500 µg
[12] = Mutagenicity in Salmonella typhimurium TA100 assessed as number of revertant colonies at 1500 ug per plate incubated for 90 mins in presence of S9 fraction by AMES test (reference value: 122.67 +/- 5.03); format: toxicity, subcellular, Salmonella enterica subsp. enterica serovar Typhimurium; settings: s9, 1.5 h, dose 1500 µg
[13] = Mutagenicity in Salmonella typhimurium TA98 assessed as mutagenic index ratio at 150 ug per plate incubated for 90 mins in presence of S9 fraction by AMES test; format: toxicity, subcellular, Salmonella enterica subsp. enterica serovar Typhimurium; settings: s9, 1.5 h, dose 150 µg
[14] = Mutagenicity in Salmonella typhimurium TA100 assessed as number of revertant colonies at 50 ug per plate incubated for 90 mins by AMES test (reference value: 88.00 +/- 2.65); format: toxicity, Salmonella enterica subsp. enterica serovar Typhimurium; settings: in vivo, 1.5 h, dose 50 µg
[15] = Mutagenicity in Salmonella typhimurium TA98 assessed as mutagenic index ratio at 150 ug per plate incubated for 90 mins by AMES test; format: toxicity, Salmonella enterica subsp. enterica serovar Typhimurium; settings: in vivo, 1.5 h, dose 150 µg
[16] = Mutagenicity in Salmonella typhimurium TA100 assessed as number of revertant colonies at 150 ug per plate incubated for 90 mins by AMES test (reference value: 88.00 +/- 2.65); format: toxicity, Salmonella enterica subsp. enterica serovar Typhimurium; settings: in vivo, 1.5 h, dose 150 µg
[17] = Mutagenicity in Salmonella typhimurium TA102 assessed as number of revertant colonies at 50 ug per plate incubated for 90 mins in presence of S9 fraction by AMES test (reference value: 130.00 +/- 6.93); format: toxicity, subcellular, Salmonella enterica subsp. enterica serovar Typhimurium; settings: s9, 1.5 h, dose 50 µg
[18] = Selectivity index, ratio of CC50 for cytotoxicity against monkey LLC-MK2 cells to IC50 for antitrypanosomal activity against Trypanosoma cruzi Tulahuen amastigotes transfected with Escherichia coli beta-galactosidase LacZ gene infected in monkey LLC-MK2 cells; format: toxicity, cell-based; settings: read-out: Ratio CC50/IC50
[19] = Mutagenicity in Salmonella typhimurium TA102 assessed as number of revertant colonies at 50 ug per plate incubated for 90 mins by AMES test (reference value: 110.67 +/- 20.15); format: toxicity, Salmonella enterica subsp. enterica serovar Typhimurium; settings: in vivo, 1.5 h, dose 50 µg
[20] = Mutagenicity in Salmonella typhimurium TA100 assessed as mutagenic index ratio at 150 ug per plate incubated for 90 mins by AMES test; format: toxicity, Salmonella enterica subsp. enterica serovar Typhimurium; settings: in vivo, 1.5 h, dose 150 µg
Trypanosoma cruzi = test: Potency index, ratio of Benznidazole IC50 to test compound IC50 for antitrypanosomal activity against Trypanosoma cruzi Tulahuen amastigotes transfected with Escherichia coli beta-galactosidase LacZ gene infected in monkey LLC-MK2 cells assessed as inhibition of amastigotes growth incubated for 72 hrs by absorbance based microplate reader analysis; format: functional
[21] = Mutagenicity in Salmonella typhimurium TA102 assessed as mutagenic index ratio at 50 ug per plate incubated for 90 mins in presence of S9 fraction by AMES test; format: toxicity, subcellular, Salmonella enterica subsp. enterica serovar Typhimurium; settings: s9, 1.5 h, dose 50 µg
[22] = Mutagenicity in Salmonella typhimurium TA102 assessed as mutagenic index ratio at 1500 ug per plate incubated for 90 mins by AMES test; format: toxicity, Salmonella enterica subsp. enterica serovar Typhimurium; settings: in vivo, 1.5 h, dose 1500 µg
[23] = Mutagenicity in Salmonella typhimurium TA102 assessed as number of revertant colonies at 500 ug per plate incubated for 90 mins in presence of S9 fraction by AMES test (reference value: 130.00 +/- 6.93); format: toxicity, subcellular, Salmonella enterica subsp. enterica serovar Typhimurium; settings: s9, 1.5 h, dose 500 µg
[24] = Mutagenicity in Salmonella typhimurium TA98 assessed as number of revertant colonies at 1500 ug per plate incubated for 90 mins by AMES test (reference value: 22.67 +/- 0.58); format: toxicity, Salmonella enterica subsp. enterica serovar Typhimurium; settings: in vivo, 1.5 h, dose 1500 µg
[25] = Mutagenicity in Salmonella typhimurium TA100 assessed as mutagenic index ratio at 5000 ug per plate incubated for 90 mins in presence of S9 fraction by AMES test; format: toxicity, subcellular, Salmonella enterica subsp. enterica serovar Typhimurium; settings: s9, 1.5 h, dose 5000 µg
[26] = Substrate activity at Trypanosoma cruzi type I nitro reductase assessed as reduction in NADH incubated for 120 sec by spectrophotometric analysis
[27] = Mutagenicity in Salmonella typhimurium TA98 assessed as number of revertant colonies at 50 ug per plate incubated for 90 mins in presence of S9 fraction by AMES test (reference value: 21.00 +/- 1.00); format: toxicity, subcellular, Salmonella enterica subsp. enterica serovar Typhimurium; settings: s9, 1.5 h, dose 50 µg
[28] = Mutagenicity in Salmonella typhimurium TA98 assessed as mutagenic index ratio at 5000 ug per plate incubated for 90 mins by AMES test; format: toxicity, Salmonella enterica subsp. enterica serovar Typhimurium; settings: in vivo, 1.5 h, dose 5000 µg
[29] = Mutagenicity in Salmonella typhimurium TA100 assessed as number of revertant colonies at 1500 ug per plate incubated for 90 mins by AMES test (reference value: 88.00 +/- 2.65); format: toxicity, Salmonella enterica subsp. enterica serovar Typhimurium; settings: in vivo, 1.5 h, dose 1500 µg
[30] = Cytotoxicity against monkey LLC-MK2 cells incubated for 72 hrs by MTT assay; format: toxicity, cell-based, Macaca mulatta; settings: rhesus monkey
[31] = Mutagenicity in Salmonella typhimurium TA98 assessed as number of revertant colonies at 150 ug per plate incubated for 90 mins in presence of S9 fraction by AMES test (reference value: 21.00 +/- 1.00); format: toxicity, subcellular, Salmonella enterica subsp. enterica serovar Typhimurium; settings: s9, 1.5 h, dose 150 µg
[32] = Mutagenicity in Salmonella typhimurium TA98 assessed as number of revertant colonies at 1500 ug per plate incubated for 90 mins in presence of S9 fraction by AMES test (reference value: 21.00 +/- 1.00); format: toxicity, subcellular, Salmonella enterica subsp. enterica serovar Typhimurium; settings: s9, 1.5 h, dose 1500 µg

`O=[N+]([O-])c1ncn(Cc2cn(-c3ccc(OC(F)(F)F)cc3)nn2)n1` showed a Ratio [1] of 0.8, an Activity [2] of 141 and an Activity [3] of 129. It also gave a Ratio [4] of 1.3, a Ratio [5] of 1 and an Activity [6] of 131. For the same compound, the Activity [7] was 25, the Ratio [8] was 0.9 and the Activity [9] was 83. The Activity [10] was 21.33, the Ratio [11] was 1.4 and the Activity [12] was 98.33. For the same compound, the Ratio [13] was 1.1, the Activity [14] was 104.33 and the Ratio [15] was 1. It also gave an Activity [16] of 96, an Activity [17] of 162.67 and a selectivity ratio [18] of over 556. The Activity [19] was 215.33, the Ratio [20] was 1 and the “Ratio IC50” value (Trypanosoma cruzi) was 68. For the same compound, the Ratio [21] was 0.2, the Ratio [22] was 1.2 and the Activity [23] was 190. It also gave an Activity [24] of 20.33, a Ratio [25] of 0.3 and a pIC50 [26] of 7.04. The Activity [27] was 22.67, the Ratio [28] was 1.1 and the Activity [29] was 81. It also gave a CC50 at 72 h [30] of over 50 µM, an Activity [31] of 23.33 and an Activity [32] of 22.
